Experimental data reported in ChEMBL document CHEMBL4177767, “Discovery of N2-(4-Amino-cyclohexyl)-9-cyclopentyl- N6-(4-morpholin-4-ylmethyl-phenyl)- 9H-purine-2,6-diamine as a Potent FLT3 Kinase Inhibitor for Acute Myeloid Leukemia with FLT3 Mutations” (J Med Chem, 2018).
pIC50: −log10 of the molar value. The source made the active and inactive calls. The rule behind the calls is not given here.

How the values were obtained:
[1] = molecular target: Receptor-type tyrosine-protein kinase FLT3 (Homo sapiens, UniProt P36888, D835Y); test: biochemical; format: cell-based, Sf9
Description: Inhibition of N-terminal GST/His6-fused recombinant human FLT3 (R571 to S993 residues) D835Y mutant expressed in Sf9 insect cells using poly (Ala,Glu,Lys,Tyr) 6:2:5:1 hydrobromide as substrate in presence of [gamma-33P]ATP

[2] = test system: MV4-11; test: Cell cycle arrest in human MV4-11 cells assessed as accumulation at sub-G1 phase at 0.01 nM after 24 hrs by propidium iodide staining-based flow cytometric method (reference value: 9.2%); format: functional
[3] = test system: MV4-11; test: Cell cycle arrest in human MV4-11 cells assessed as accumulation at G1 phase at 0.01 nM after 24 hrs by propidium iodide staining-based flow cytometric method (reference value: 56%); format: functional
[4] = test system: MV4-11; test: Cell cycle arrest in human MV4-11 cells assessed as accumulation at G2/M phase at 0.01 nM after 24 hrs by propidium iodide staining-based flow cytometric method (reference value: 15.9%); format: functional
[5] = test system: MV4-11; test: Cell cycle arrest in human MV4-11 cells assessed as accumulation at sub-G1 phase at 0.1 nM after 24 hrs by propidium iodide staining-based flow cytometric method (reference value: 9.2%); format: functional
[6] = test system: MV4-11; test: Cell cycle arrest in human MV4-11 cells assessed as accumulation at G2/M phase at 0.1 nM after 24 hrs by propidium iodide staining-based flow cytometric method (reference value: 15.9%); format: functional
[7] = test system: MV4-11; test: Cell cycle arrest in human MV4-11 cells assessed as accumulation at sub-G1 phase at 1 nM after 24 hrs by propidium iodide staining-based flow cytometric method (reference value: 9.2%); format: functional
[8] = test system: MV4-11; test: Cell cycle arrest in human MV4-11 cells assessed as accumulation at G1 phase at 1 nM after 24 hrs by propidium iodide staining-based flow cytometric method (reference value: 56%); format: functional
[9] = test system: MV4-11; test: Cell cycle arrest in human MV4-11 cells assessed as accumulation at S phase at 1 nM after 24 hrs by propidium iodide staining-based flow cytometric method (reference value: 28.1%); format: functional
[10] = test system: MV4-11; test: Cell cycle arrest in human MV4-11 cells assessed as accumulation at G2/M phase at 1 nM after 24 hrs by propidium iodide staining-based flow cytometric method (reference value: 15.9%); format: functional
[11] = test system: MV4-11; test: Cell cycle arrest in human MV4-11 cells assessed as accumulation at sub-G1 phase at 10 nM after 24 hrs by propidium iodide staining-based flow cytometric method (reference value: 9.2%); format: functional
[12] = test system: MV4-11; test: Cell cycle arrest in human MV4-11 cells assessed as accumulation at G1 phase at 10 nM after 24 hrs by propidium iodide staining-based flow cytometric method (reference value: 56%); format: functional
[13] = test system: MV4-11; test: Cell cycle arrest in human MV4-11 cells assessed as accumulation at S phase at 10 nM after 24 hrs by propidium iodide staining-based flow cytometric method (reference value: 28.1%); format: functional
[14] = test system: MV4-11; test: Cell cycle arrest in human MV4-11 cells assessed as accumulation at G2/M phase at 10 nM after 24 hrs by propidium iodide staining-based flow cytometric method (reference value: 15.9%); format: functional
[15] = test system: MV4-11; test: Cell cycle arrest in human MV4-11 cells assessed as accumulation at G1 phase at 100 nM after 24 hrs by propidium iodide staining-based flow cytometric method (reference value: 56%); format: functional
[16] = test system: MV4-11; test: Cell cycle arrest in human MV4-11 cells assessed as accumulation at S phase at 100 nM after 24 hrs by propidium iodide staining-based flow cytometric method (reference value: 28.1%); format: functional
[17] = test system: MV4-11; test: Induction of apoptosis in human MV4-11 cells assessed as increase in PARP1 cleavage at 10 to 100 nM after 24 hrs by immunoblot method; format: functional, cell-based
[18] = test system: MV4-11; test: Induction of apoptosis in human MV4-11 cells assessed as decrease in Mcl-1 levels at 10 to 100 nM after 24 hrs by immunoblot method; format: functional, cell-based
[19] = test system: K562; test: Induction of apoptosis in human K562 cells assessed as increase in caspase-3/7 activity using Ac-DEVD-AMC substrate after 24 hrs by fluorescence assay; format: functional, cell-based
[20] = test system: Rattus norvegicus; test: Toxicity in Wistar rat assessed as mortality at 100 mg/kg, iv measured over 15 days; format: organism-based; conditions: in vivo, 360 h
[21] = molecular target: High affinity nerve growth factor receptor (Homo sapiens) (UniProt P04629); conditions: 10 nM
Sequence of High affinity nerve growth factor receptor (Homo sapiens) (P04629 33-796 limits assumed): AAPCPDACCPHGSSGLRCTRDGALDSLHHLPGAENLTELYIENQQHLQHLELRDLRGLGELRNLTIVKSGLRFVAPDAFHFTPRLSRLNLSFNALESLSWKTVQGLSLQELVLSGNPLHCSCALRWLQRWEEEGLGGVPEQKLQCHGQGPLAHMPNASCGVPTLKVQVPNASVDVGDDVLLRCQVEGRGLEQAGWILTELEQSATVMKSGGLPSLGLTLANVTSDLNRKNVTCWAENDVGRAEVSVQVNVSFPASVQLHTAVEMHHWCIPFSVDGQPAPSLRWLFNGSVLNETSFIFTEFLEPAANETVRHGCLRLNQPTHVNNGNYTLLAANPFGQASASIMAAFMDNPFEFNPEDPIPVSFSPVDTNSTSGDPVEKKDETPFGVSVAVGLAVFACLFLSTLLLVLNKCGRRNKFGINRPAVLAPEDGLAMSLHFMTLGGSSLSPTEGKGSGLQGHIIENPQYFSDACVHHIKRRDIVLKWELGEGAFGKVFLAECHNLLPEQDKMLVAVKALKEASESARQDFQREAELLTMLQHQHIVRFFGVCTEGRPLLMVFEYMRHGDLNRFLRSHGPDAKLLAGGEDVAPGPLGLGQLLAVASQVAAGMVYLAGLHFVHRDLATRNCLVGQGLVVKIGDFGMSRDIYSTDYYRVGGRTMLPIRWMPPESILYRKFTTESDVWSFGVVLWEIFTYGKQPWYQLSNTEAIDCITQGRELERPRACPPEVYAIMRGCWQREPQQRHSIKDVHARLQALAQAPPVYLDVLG
Description: Inhibition of human N-terminal GST-tagged TRK cytoplasmic domain expressed in baculovirus expression system at 10 nM relative to control

[22] = molecular target: Serine/threonine-protein kinase SIK2 (Homo sapiens) (UniProt Q9H0K1); conditions: 10 nM
Sequence of Serine/threonine-protein kinase SIK2 (Homo sapiens) (Q9H0K1 whole entry, looked up): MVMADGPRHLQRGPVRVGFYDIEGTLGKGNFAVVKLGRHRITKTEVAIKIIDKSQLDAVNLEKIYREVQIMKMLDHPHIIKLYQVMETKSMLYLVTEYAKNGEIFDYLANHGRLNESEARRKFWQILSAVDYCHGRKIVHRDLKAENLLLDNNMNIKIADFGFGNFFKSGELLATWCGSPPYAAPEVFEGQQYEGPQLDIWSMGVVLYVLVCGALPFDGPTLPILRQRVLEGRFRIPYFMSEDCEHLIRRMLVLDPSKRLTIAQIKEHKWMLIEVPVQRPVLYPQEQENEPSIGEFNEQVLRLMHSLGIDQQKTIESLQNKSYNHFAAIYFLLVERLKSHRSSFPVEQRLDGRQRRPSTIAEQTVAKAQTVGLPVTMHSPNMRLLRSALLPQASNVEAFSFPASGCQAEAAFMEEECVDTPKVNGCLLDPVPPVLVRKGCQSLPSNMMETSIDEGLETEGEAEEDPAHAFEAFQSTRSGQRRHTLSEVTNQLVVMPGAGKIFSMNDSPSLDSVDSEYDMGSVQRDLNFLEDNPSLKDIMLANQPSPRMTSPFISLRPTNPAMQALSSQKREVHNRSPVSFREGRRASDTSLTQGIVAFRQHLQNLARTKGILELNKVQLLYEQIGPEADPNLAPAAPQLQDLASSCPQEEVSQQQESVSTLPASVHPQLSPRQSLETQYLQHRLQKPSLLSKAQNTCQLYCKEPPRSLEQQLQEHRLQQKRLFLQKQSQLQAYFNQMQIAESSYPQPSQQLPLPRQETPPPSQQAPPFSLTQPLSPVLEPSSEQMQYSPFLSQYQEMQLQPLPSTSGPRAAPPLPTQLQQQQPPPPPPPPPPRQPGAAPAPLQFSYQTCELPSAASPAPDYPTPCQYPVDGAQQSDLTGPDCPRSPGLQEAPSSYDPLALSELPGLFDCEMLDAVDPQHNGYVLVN
Description: Inhibition of full length human N-terminal GST-tagged QIK expressed in baculovirus expression system at 10 nM relative to control

[23] = molecular target: Serine/threonine-protein kinase SIK1 (Homo sapiens) (UniProt P57059); conditions: 10 nM
Sequence of Serine/threonine-protein kinase SIK1 (Homo sapiens) (P57059 whole entry): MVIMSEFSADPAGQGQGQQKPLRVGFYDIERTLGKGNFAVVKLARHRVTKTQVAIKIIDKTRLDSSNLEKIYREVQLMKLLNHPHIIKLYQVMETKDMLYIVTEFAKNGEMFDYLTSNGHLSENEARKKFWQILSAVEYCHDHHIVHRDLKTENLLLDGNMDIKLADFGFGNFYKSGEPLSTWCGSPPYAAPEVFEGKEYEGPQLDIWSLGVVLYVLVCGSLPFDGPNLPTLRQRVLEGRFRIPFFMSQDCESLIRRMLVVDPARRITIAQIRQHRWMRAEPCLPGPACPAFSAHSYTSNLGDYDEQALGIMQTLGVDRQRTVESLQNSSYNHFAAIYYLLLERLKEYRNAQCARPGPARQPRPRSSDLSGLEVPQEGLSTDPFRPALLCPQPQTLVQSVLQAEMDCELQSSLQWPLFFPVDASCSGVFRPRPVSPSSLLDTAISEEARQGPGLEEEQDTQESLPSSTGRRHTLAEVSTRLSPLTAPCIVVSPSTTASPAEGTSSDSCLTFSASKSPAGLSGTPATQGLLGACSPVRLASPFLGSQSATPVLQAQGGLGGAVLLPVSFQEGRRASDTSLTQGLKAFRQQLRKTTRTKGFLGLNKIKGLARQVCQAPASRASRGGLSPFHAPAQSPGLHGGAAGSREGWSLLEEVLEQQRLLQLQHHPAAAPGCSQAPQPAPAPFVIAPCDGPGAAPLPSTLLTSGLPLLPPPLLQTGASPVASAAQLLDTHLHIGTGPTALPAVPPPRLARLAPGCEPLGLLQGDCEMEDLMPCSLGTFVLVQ
Description: Inhibition of full length human N-terminal GST-tagged SIK expressed in baculovirus expression system at 10 nM relative to control

[24] = molecular target: Tyrosine-protein kinase Yes (Homo sapiens) (UniProt P07947); conditions: 10 nM
Sequence of Tyrosine-protein kinase Yes (Homo sapiens) (P07947 2-543 limits assumed): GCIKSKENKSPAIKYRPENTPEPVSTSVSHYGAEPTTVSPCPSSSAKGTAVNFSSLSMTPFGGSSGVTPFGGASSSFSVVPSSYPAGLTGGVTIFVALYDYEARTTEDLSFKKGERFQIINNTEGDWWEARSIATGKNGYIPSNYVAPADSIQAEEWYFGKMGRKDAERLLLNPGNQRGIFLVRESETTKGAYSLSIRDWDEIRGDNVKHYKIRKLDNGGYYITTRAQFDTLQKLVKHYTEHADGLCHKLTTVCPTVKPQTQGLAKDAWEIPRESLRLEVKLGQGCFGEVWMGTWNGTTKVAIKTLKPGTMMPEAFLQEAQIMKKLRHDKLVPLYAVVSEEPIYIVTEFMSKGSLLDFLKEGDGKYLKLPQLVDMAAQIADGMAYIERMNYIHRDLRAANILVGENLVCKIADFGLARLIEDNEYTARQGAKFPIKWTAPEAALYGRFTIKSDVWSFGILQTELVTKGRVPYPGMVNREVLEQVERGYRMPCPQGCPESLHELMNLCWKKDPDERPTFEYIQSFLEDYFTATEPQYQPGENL
Description: Inhibition of human full length N-terminal GST-tagged Yes expressed in baculovirus expression system at 10 nM relative to control

[25] = molecular target: Proto-oncogene tyrosine-protein kinase Src (Homo sapiens) (UniProt P12931); conditions: 10 nM
Sequence of Proto-oncogene tyrosine-protein kinase Src (Homo sapiens) (P12931 2-536 limits assumed): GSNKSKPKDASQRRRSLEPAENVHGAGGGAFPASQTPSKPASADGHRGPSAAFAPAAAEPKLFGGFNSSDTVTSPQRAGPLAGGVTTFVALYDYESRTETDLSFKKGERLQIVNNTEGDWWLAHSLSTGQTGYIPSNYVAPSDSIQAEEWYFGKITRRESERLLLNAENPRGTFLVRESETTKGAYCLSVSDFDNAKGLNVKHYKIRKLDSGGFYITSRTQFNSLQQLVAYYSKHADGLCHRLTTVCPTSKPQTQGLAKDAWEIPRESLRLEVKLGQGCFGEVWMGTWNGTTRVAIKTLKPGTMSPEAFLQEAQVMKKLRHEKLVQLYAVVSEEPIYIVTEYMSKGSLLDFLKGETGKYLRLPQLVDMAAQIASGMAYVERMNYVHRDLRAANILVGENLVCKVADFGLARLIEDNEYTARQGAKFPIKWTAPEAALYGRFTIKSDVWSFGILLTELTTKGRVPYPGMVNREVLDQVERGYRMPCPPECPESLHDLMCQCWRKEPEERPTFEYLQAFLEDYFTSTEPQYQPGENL
Description: Inhibition of full length human N-terminal GST-tagged SRC expressed in baculovirus expression system at 10 nM relative to control

[26] = test system: Receptor-type tyrosine-protein kinase FLT3 (Homo sapiens), P36888 [UNDEFINED MUTATION]; conditions: MV4-11, at 1 nM
Description: Inhibition of FLT3 ITD mutant autophosphorylation at Y589/591 in human MV4-11 cells at 1 nM after 1 hr by immunoblot analysis

[27] = test system: Receptor-type tyrosine-protein kinase FLT3 (Homo sapiens), P36888 [UNDEFINED MUTATION]; conditions: MV4-11, at 1 nM; remark: listed apart in the source
Description: Inhibition of FLT3 ITD mutant autophosphorylation at Y842 in human MV4-11 cells at 1 nM after 1 hr by immunoblot analysis

[28] = test system: Receptor-type tyrosine-protein kinase FLT3 (Homo sapiens), P36888 [UNDEFINED MUTATION]; conditions: MV4-11, at 0.01 to 100 nM
Description: Inhibition of FLT3 ITD mutant in human MV4-11 cells assessed as decrease in ERK1/2 phosphorylation at T202/Y204 at 0.01 to 100 nM after 1 hr by immunoblot analysis

[29] = test system: Receptor-type tyrosine-protein kinase FLT3 (Homo sapiens), P36888 [UNDEFINED MUTATION]; conditions: MV4-11, at 0.01 to 100 nM; remark: listed apart in the source
Description: Inhibition of FLT3 ITD mutant in human MV4-11 cells assessed as decrease in MEK1/2 phosphorylation at S217/221 at 0.01 to 100 nM after 1 hr by immunoblot analysis

[30] = test system: K562; test: cells; conditions: Homo sapiens, K562, 72 h
[31] = test system: MOLM-13; test: cells; conditions: Homo sapiens, MOLM-13, 72 h
[32] = test system: THP-1; test: cells; conditions: Homo sapiens, THP-1, 72 h
[33] = test system: MCF7; test: cells; conditions: Homo sapiens, MCF7, 72 h
[34] = test system: HCC827; test: cells; conditions: Homo sapiens, HCC827, 72 h
[35] = in vitro; conditions: human, MRC5 cells
[36] = in vitro; conditions: human, HUVEC
[37] = in vitro; conditions: human, BJ cells
[38] = species on record: Mus musculus; test: animal or person; conditions: MV4-11, ip, 2 h, read-out: INH

Q: Which results are given for `N[C@H]1CC[C@H](Nc2nc(Nc3ccc(CN4CCOCC4)cc3)c3ncn(C4CCCC4)c3n2)CC1`?
A: pIC50 [1]: 8.10; Activity [2]: 9.9%; Activity [3]: 5.6%; Activity [4]: 14.5%; Activity [5]: 11.8%; Activity [6]: 12.3%; Activity [7]: 20.4%; Activity [8]: 90.3%; Activity [9]: 8.6%; Activity [10]: 1.1%; Activity [11]: 42.9%; Activity [12]: 96.5%; Activity [13]: 2.7%; Activity [14]: 0.8%; Activity [15]: 95%; Activity [16]: 3.8%; Activity [17]: Active; Activity [18]: Active; Activity [19]: inactive; Activity [20]: Non-Toxic; inhibition [21]: > 90%; inhibition [22]: > 90%; inhibition [23]: > 90%; inhibition [24]: > 90%; inhibition [25]: > 90%; inhibition [26]: Active; inhibition [27]: Active; inhibition [28]: Active; inhibition [29]: Active; GI50 [30]: 380 nM; GI50 [31]: 1 nM; GI50 [32]: 713 nM; GI50 [33]: 197 nM; GI50 [34]: 327 nM; GI50 at 72 h [35]: 20600 nM; GI50 at 72 h [36]: 5870 nM; GI50 at 72 h [37]: 12700 nM; inhibition in vivo at 10 mg/kg [38]: 95%
